Reference: the kinase profiling compilation of Christmann-Franck et al. (2016)

What was measured:
Test in all cases: radiometric filter-binding kinase assay
[1] = target: MAPK9 (human) (UniProt P45984)
[2] = target: JAK2 JH1 JH2 (human) (UniProt O60674)
[3] = target: STK3 (human) (UniProt Q13188)
[4] = target: GCK (human) (UniProt Q12851)
[5] = target: EPHB1 (human) (UniProt P54762)
[6] = target: YES1 (human) (UniProt P07947)
[7] = target: PRKCA (human) (UniProt P17252)
[8] = target: EPHA2 (human) (UniProt P29317)
[9] = target: DYRK2 (human) (UniProt Q92630)
DYRK2 (human), sequence (Q92630 whole entry, looked up): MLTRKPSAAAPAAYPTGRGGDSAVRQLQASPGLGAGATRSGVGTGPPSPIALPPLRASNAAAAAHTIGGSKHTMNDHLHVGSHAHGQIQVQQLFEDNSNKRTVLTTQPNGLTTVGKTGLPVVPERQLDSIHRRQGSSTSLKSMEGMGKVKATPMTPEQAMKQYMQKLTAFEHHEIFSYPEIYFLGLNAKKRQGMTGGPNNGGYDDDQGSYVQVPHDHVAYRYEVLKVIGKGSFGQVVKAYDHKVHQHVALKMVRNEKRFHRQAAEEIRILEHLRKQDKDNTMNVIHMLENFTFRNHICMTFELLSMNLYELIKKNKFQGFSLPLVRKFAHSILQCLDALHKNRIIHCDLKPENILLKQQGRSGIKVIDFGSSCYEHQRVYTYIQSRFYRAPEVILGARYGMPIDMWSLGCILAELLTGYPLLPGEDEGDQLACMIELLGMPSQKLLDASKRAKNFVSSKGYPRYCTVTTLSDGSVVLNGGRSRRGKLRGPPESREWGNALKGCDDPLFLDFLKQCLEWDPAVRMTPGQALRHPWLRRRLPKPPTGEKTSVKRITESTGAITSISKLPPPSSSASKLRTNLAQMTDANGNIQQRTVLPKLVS

[10] = target: BRSK1 (human) (UniProt Q8TDC3)
[11] = target: EPHB4 (human) (UniProt P54760)
EPHB4 (human), sequence (P54760 whole entry, looked up): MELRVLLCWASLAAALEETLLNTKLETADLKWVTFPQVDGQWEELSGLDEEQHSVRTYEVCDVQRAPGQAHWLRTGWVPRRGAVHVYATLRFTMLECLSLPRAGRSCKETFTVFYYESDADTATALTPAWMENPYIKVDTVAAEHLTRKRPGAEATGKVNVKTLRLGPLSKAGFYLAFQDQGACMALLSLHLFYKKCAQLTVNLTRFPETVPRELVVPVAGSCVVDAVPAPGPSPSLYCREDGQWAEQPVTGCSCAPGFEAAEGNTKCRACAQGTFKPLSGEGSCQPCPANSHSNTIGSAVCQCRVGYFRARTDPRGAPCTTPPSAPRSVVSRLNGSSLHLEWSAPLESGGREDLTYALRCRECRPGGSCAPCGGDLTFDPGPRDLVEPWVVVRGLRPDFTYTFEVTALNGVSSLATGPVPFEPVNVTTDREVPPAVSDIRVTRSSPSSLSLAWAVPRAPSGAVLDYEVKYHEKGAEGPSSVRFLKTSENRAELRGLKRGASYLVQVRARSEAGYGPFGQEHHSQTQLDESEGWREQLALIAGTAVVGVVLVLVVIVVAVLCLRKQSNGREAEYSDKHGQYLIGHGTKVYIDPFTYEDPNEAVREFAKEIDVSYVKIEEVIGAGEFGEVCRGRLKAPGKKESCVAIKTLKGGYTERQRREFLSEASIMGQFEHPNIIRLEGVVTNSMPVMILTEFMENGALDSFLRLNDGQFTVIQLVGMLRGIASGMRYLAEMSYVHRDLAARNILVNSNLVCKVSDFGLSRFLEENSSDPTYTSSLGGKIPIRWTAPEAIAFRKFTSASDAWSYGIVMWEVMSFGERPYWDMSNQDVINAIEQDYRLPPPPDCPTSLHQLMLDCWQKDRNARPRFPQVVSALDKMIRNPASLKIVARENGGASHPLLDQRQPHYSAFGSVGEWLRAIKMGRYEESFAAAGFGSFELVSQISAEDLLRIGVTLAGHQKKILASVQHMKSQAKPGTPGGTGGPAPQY

[12] = target: MAPK11 (human) (UniProt Q15759)
[13] = target: INSR (human) (UniProt P06213)
[14] = target: FLT1 (human) (UniProt P17948); details: compound 10.0 µM
[15] = target: HIPK2 (human) (UniProt Q9H2X6)
[16] = target: TAOK1 (human) (UniProt Q7L7X3)
[17] = tested on: AKT1 (human), P31749 [S473D]
AKT1 (human), P31749 [S473D], sequence (P31749 whole entry S473D, looked up): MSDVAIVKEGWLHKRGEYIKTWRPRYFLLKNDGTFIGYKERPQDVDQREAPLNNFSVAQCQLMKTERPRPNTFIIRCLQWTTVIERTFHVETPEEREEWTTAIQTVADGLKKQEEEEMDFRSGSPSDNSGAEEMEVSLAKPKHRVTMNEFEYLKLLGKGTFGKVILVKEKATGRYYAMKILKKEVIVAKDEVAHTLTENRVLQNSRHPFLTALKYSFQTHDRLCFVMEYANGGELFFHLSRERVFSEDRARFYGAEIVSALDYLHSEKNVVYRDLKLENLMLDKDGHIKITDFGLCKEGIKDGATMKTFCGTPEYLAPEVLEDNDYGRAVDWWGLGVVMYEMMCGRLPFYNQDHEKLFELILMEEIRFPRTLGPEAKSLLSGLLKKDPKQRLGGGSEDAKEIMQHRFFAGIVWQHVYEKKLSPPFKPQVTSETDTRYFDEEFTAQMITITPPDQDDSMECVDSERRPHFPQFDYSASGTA

[18] = target: TBK1 (human) (UniProt Q9UHD2)
TBK1 (human), sequence (Q9UHD2 whole entry, looked up): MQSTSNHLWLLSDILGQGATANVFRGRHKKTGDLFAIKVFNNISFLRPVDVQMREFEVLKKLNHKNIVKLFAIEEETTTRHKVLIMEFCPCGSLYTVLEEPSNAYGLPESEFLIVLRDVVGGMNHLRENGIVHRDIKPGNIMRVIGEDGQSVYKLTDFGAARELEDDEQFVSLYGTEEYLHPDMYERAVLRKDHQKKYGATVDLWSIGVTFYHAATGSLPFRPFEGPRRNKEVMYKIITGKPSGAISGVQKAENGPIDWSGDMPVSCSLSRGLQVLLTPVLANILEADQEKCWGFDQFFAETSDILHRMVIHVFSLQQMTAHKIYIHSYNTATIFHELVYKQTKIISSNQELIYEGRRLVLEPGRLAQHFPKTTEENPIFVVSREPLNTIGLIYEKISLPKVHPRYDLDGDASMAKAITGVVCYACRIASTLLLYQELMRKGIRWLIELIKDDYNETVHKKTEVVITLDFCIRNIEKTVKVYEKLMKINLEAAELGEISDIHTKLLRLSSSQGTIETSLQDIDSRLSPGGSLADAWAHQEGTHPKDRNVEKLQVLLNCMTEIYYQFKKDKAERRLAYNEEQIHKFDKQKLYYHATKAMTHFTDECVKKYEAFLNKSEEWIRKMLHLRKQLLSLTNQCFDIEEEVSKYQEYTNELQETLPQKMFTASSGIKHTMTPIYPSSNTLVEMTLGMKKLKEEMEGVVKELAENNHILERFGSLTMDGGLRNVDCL

[19] = target: EPHB2 (human) (UniProt P29323)
[20] = target: CaMK1 (human) (UniProt Q14012)
CaMK1 (human), sequence (Q14012 whole entry, looked up): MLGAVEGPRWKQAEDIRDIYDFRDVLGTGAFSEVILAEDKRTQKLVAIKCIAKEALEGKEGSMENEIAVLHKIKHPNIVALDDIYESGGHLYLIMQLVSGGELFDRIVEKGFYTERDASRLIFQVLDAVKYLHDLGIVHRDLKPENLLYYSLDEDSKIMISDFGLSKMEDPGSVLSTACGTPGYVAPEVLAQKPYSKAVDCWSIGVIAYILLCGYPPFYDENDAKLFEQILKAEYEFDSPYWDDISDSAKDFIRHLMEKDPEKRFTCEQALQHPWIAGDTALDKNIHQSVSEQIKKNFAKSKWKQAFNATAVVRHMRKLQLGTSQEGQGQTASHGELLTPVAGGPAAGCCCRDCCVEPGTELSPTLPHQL

[21] = target: AURKA (human) (UniProt O14965)
[22] = target: HIPK1 (human) (UniProt Q86Z02)
[23] = target: PIM1 (human) (UniProt P11309)
[24] = target: MAP2K1 (human) (UniProt Q02750)
MAP2K1 (human), sequence (Q02750 whole entry, looked up): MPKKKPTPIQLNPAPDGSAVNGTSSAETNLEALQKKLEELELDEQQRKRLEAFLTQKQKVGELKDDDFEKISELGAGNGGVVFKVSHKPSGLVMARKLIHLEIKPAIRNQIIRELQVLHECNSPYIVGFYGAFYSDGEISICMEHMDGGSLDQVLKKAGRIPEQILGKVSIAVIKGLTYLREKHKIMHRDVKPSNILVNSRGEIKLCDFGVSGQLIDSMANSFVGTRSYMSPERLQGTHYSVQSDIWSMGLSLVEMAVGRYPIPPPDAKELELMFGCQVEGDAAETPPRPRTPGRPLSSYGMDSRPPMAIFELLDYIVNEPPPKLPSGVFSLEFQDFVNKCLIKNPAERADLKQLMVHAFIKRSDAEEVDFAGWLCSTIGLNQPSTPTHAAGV

[25] = target: BRSK2 (human) (UniProt Q8IWQ3)
[26] = tested on: RPS6KB1 (human), P23443 [T412E]
[27] = target: BTK (human) (UniProt Q06187)
[28] = target: DYRK3 (human) (UniProt O43781)
[29] = target: MARK3 (human) (UniProt P27448)
[30] = target: MAP3K1 (human) (UniProt Q13233)
[31] = target: MAP3K5 (human) (UniProt Q99683)
[32] = target: MAPKAPK5 (human) (UniProt Q8IW41)
MAPKAPK5 (human), sequence (Q8IW41 whole entry, looked up): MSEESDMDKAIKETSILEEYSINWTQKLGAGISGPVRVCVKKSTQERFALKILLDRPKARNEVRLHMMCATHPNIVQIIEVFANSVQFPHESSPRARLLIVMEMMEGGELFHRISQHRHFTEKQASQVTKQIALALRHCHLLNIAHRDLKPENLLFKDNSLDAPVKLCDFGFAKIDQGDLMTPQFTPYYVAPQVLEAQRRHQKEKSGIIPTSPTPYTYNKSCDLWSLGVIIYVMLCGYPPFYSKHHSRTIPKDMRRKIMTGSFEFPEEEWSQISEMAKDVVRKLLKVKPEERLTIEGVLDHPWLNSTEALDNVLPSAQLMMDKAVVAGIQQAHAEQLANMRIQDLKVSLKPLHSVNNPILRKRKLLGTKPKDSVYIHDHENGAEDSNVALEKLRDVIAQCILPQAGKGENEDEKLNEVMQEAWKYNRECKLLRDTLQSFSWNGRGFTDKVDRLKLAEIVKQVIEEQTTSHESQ

[33] = target: MAPK10 (human) (UniProt P53779)
[34] = target: MAP3K11 (human) (UniProt Q16584)
[35] = target: MAPK8 (human) (UniProt P45983)
[36] = target: SYK (human) (UniProt P43405)

EPHB1 (human), sequence (P54762 whole entry, looked up): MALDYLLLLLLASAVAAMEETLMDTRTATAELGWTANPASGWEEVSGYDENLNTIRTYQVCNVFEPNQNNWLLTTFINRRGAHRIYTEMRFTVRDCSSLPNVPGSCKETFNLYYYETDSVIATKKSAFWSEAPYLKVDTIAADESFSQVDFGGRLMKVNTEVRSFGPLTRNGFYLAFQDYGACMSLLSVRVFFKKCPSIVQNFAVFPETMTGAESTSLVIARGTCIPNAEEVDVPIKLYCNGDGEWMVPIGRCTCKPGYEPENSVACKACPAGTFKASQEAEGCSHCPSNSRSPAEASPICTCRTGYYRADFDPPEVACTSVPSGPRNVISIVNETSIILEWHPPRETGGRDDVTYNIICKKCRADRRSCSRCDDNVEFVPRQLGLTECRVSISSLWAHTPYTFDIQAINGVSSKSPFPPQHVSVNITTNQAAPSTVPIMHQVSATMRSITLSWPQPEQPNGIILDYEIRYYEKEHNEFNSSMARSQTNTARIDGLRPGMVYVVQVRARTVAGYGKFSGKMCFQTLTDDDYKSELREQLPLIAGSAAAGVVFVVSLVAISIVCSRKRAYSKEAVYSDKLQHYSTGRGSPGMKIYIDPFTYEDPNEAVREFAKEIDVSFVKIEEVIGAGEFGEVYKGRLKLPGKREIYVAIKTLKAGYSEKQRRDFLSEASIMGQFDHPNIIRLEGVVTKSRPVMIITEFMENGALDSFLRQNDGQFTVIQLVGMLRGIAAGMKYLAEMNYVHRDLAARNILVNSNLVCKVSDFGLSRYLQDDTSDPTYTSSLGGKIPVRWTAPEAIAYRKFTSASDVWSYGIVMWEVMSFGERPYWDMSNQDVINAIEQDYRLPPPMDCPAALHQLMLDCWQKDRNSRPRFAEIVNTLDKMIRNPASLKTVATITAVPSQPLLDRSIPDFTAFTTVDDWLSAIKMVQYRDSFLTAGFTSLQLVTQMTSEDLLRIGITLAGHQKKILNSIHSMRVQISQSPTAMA

Cc1ccc(-c2ccc3c(ccc4sc5c(c43)NC[C@@H](C)NC5=O)n2)cn1
residual activity ([1]; compound 0.1 µM): 123% | residual activity ([1]; compound 1.0 µM): 111% | residual activity ([1]; compound 10.0 µM): 107% | residual activity ([2]; compound 0.1 µM): 101% | residual activity ([2]; compound 1.0 µM): 102% | residual activity ([2]; compound 10.0 µM): 79% | residual activity ([3]; compound 0.1 µM): 131% | residual activity ([3]; compound 10.0 µM): 100% | residual activity ([4]; compound 0.1 µM): 109% | residual activity ([4]; compound 1.0 µM): 89% | residual activity ([4]; compound 10.0 µM): 19% | residual activity ([5]; compound 0.1 µM): 113% | residual activity ([5]; compound 1.0 µM): 106% | residual activity ([5]; compound 10.0 µM): 106% | residual activity ([6]; compound 0.1 µM): 112% | residual activity ([6]; compound 1.0 µM): 89% | residual activity ([6]; compound 10.0 µM): 55% | residual activity ([7]; compound 0.1 µM): 101% | residual activity ([7]; compound 10.0 µM): 90% | residual activity ([8]; compound 0.1 µM): 90% | residual activity ([8]; compound 1.0 µM): 95% | residual activity ([8]; compound 10.0 µM): 76% | residual activity ([9]; compound 0.1 µM): 101% | residual activity ([9]; compound 1.0 µM): 105% | residual activity ([9]; compound 10.0 µM): 52% | residual activity ([10]; compound 0.1 µM): 86% | residual activity ([10]; compound 1.0 µM): 55% | residual activity ([10]; compound 10.0 µM): 29% | residual activity ([11]; compound 0.1 µM): 110% | residual activity ([11]; compound 1.0 µM): 106% | residual activity ([11]; compound 10.0 µM): 99% | residual activity ([12]; compound 0.1 µM): 118% | residual activity ([12]; compound 1.0 µM): 126% | residual activity ([12]; compound 10.0 µM): 117% | residual activity ([13]; compound 0.1 µM): 123% | residual activity [14]: 65% | residual activity ([15]; compound 1.0 µM): 113% | residual activity ([15]; compound 10.0 µM): 78% | residual activity ([16]; compound 0.1 µM): 109% | residual activity ([16]; compound 1.0 µM): 98% | residual activity ([16]; compound 10.0 µM): 70% | residual activity ([17]; compound 0.1 µM): 109% | residual activity ([17]; compound 1.0 µM): 97% | residual activity ([17]; compound 10.0 µM): 98% | residual activity ([18]; compound 0.1 µM): 110% | residual activity ([18]; compound 1.0 µM): 87% | residual activity ([18]; compound 10.0 µM): 96% | residual activity ([19]; compound 0.1 µM): 99% | residual activity ([19]; compound 1.0 µM): 110% | residual activity ([19]; compound 10.0 µM): 111% | residual activity ([20]; compound 0.1 µM): 96% | residual activity ([20]; compound 1.0 µM): 97% | residual activity ([20]; compound 10.0 µM): 68% | residual activity ([21]; compound 1.0 µM): 102% | residual activity ([21]; compound 10.0 µM): 84% | residual activity ([22]; compound 0.1 µM): 111% | residual activity ([22]; compound 1.0 µM): 104% | residual activity ([22]; compound 10.0 µM): 130% | residual activity ([23]; compound 0.1 µM): 93% | residual activity ([23]; compound 1.0 µM): 58% | residual activity ([23]; compound 10.0 µM): 17% | residual activity ([24]; compound 0.1 µM): 101% | residual activity ([24]; compound 1.0 µM): 97% | residual activity ([24]; compound 10.0 µM): 69% | residual activity ([25]; compound 0.1 µM): 77% | residual activity ([25]; compound 1.0 µM): 32% | residual activity ([25]; compound 10.0 µM): 8% | residual activity ([26]; compound 0.1 µM): 99% | residual activity ([26]; compound 1.0 µM): 95% | residual activity ([26]; compound 10.0 µM): 80% | residual activity ([27]; compound 0.1 µM): 120% | residual activity ([27]; compound 1.0 µM): 118% | residual activity ([27]; compound 10.0 µM): 107% | residual activity ([28]; compound 0.1 µM): 111% | residual activity ([28]; compound 10.0 µM): 40% | residual activity ([29]; compound 0.1 µM): 113% | residual activity ([29]; compound 1.0 µM): 115% | residual activity ([30]; compound 0.1 µM): 102% | residual activity ([30]; compound 1.0 µM): 109% | residual activity ([30]; compound 10.0 µM): 109% | residual activity ([31]; compound 0.1 µM): 106% | residual activity ([31]; compound 1.0 µM): 80% | residual activity ([31]; compound 10.0 µM): 10% | residual activity ([32]; compound 1.0 µM): 67% | residual activity ([32]; compound 10.0 µM): 24% | residual activity ([33]; compound 0.1 µM): 120% | residual activity ([33]; compound 1.0 µM): 104% | residual activity ([33]; compound 10.0 µM): 102% | residual activity ([34]; compound 0.1 µM): 114% | residual activity ([34]; compound 1.0 µM): 102% | residual activity ([34]; compound 10.0 µM): 73% | residual activity ([35]; compound 0.1 µM): 96% | residual activity ([35]; compound 1.0 µM): 93% | residual activity ([35]; compound 10.0 µM): 92% | residual activity ([36]; compound 0.1 µM): 94% | residual activity ([36]; compound 10.0 µM): 82%

Cc1ccc2c(c1)C(=O)[C@@]1(O)CCN(c3ccccc3)C1=N2
residual activity ([1]; compound 10.0 µM): 88% | residual activity ([2]; compound 10.0 µM): 101% | residual activity ([3]; compound 10.0 µM): 104% | residual activity ([4]; compound 10.0 µM): 97% | residual activity ([5]; compound 10.0 µM): 97% | residual activity ([6]; compound 10.0 µM): 96% | residual activity ([7]; compound 10.0 µM): 103% | residual activity ([7]; compound 100.0 µM): 75% | residual activity ([8]; compound 10.0 µM): 109% | residual activity ([9]; compound 10.0 µM): 76% | residual activity ([10]; compound 10.0 µM): 106% | residual activity ([11]; compound 10.0 µM): 99% | residual activity ([12]; compound 10.0 µM): 82% | residual activity ([12]; compound 100.0 µM): 71% | residual activity ([13]; compound 10.0 µM): 95% | residual activity [14]: 85% | residual activity ([15]; compound 10.0 µM): 98% | residual activity ([16]; compound 10.0 µM): 82% | residual activity ([17]; compound 10.0 µM): 95% | residual activity ([17]; compound 100.0 µM): 88% | residual activity ([18]; compound 10.0 µM): 94% | residual activity ([19]; compound 10.0 µM): 116% | residual activity ([20]; compound 10.0 µM): 74% | residual activity ([21]; compound 10.0 µM): 99% | residual activity ([22]; compound 10.0 µM): 88% | residual activity ([23]; compound 10.0 µM): 87% | residual activity ([24]; compound 10.0 µM): 89% | residual activity ([24]; compound 100.0 µM): 99% | residual activity ([25]; compound 10.0 µM): 98% | residual activity ([26]; compound 10.0 µM): 92% | residual activity ([26]; compound 100.0 µM): 71% | residual activity ([27]; compound 10.0 µM): 82% | residual activity ([28]; compound 10.0 µM): 99% | residual activity ([29]; compound 10.0 µM): 91% | residual activity ([30]; compound 10.0 µM): 100% | residual activity ([31]; compound 10.0 µM): 91% | residual activity ([32]; compound 10.0 µM): 82% | residual activity ([32]; compound 100.0 µM): 64% | residual activity ([33]; compound 10.0 µM): 99% | residual activity ([34]; compound 10.0 µM): 73% | residual activity ([35]; compound 10.0 µM): 92% | residual activity ([35]; compound 100.0 µM): 78% | residual activity ([36]; compound 10.0 µM): 105%
